Reference: ChEMBL document CHEMBL1201862, “PubChem BioAssay data set” (2004)
Active and inactive are the calls of the source.

What was measured:
[1] = inhibitors of Vif binding to APOBEC3G peptide, primary screen, biochemical, TR-FRET, GST-Vif 1-94, biotin-A3G peptide, dose response retest (AID 1117319); type: functional;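 also: TR-FRET signal of purified GST-Vif binding a biotinylated A3G peptide; inhibitors lower the FRET signal by blocking Vif and A3G binding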
[2] = biological target: T1, Galanin receptor type 3 (Homo sapiens, UniProt O60755); test: Fluorescence-based cell-based primary high throughput dose response assay to identify antagonists of the Galanin Receptor 3 (GalR3).; type: functional
T1 sequence (O60755 whole entry): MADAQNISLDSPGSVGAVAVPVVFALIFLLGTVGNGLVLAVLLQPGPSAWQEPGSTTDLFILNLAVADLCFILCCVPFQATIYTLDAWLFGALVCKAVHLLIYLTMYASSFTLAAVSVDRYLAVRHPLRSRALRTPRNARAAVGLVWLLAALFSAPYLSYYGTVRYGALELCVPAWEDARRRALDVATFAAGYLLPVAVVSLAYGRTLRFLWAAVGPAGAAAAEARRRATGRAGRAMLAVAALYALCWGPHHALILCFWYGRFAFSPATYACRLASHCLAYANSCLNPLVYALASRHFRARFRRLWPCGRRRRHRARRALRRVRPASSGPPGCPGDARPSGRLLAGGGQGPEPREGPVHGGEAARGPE

[3] = cells; type: functional, cell-based; details: HEK-CNG
[4] = M. tuberculosis H37Rv growth inhibitors, H37Rv strain (AID 1626); type: functional
[5] = control 3'UTR Renilla luciferase suppression, dose response, counter-screen for Shn3 inhibitor project, cell-based, Clone20-Shn3RL, cherry-picked (AID 624133); type: functional
[6] = Shn3 3'UTR reporter inhibitors, dose response, cell-based, Clone20 osteoblasts, firefly luciferase, cherry-picked (AID 624132); type: functional;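 also: firefly luciferase luminescence from reporter carrying the Shn3 3'UTR in osteoblasts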
[7] = HepG2 cell cytotoxicity, dose response, cytotoxicity control for Shn3 inhibitor project, CellTiter-Glo, cherry-picked (AID 624134); type: functional, cell-based
[8] = inhibitors of clade B AD8 Env fusion, dose response, cell-based, cherry-pick (AID 652062); type: functional;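 also: luciferase signal from cell-cell fusion driven by HIV-1 clade B AD8 Env; potency is for inhibitors of fusion seen as a drop in luminescence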
[9] = biological target: T2, RNA-binding protein pos-1 (Caenorhabditis elegans, UniProt G5EF15); test: inhibitors of POS-1/mex-3 RNA binding, dose response, biochemical, fluorescence polarization (AID 1964);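 also: purified POS-1 fused to maltose binding protein made in E. coli; potency of compounds blocking POS-1 binding to fluorescent RNA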
T2 sequence (G5EF15 whole entry): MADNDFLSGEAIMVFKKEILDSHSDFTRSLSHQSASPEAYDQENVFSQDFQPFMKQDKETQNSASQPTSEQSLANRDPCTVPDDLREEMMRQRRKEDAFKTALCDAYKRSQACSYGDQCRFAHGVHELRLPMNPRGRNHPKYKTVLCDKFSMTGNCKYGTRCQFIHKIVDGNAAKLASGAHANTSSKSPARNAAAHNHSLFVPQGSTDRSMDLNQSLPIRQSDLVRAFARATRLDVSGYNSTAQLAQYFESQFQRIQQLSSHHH

[10] = biological target: T3, Caspase-6 (Homo sapiens, UniProt P55212); test: human caspase-6 inhibitors, dose response, biochemical, VEID-R110 fluorescence, cherry-pick (AID 720632)
T3 sequence (P55212 whole entry): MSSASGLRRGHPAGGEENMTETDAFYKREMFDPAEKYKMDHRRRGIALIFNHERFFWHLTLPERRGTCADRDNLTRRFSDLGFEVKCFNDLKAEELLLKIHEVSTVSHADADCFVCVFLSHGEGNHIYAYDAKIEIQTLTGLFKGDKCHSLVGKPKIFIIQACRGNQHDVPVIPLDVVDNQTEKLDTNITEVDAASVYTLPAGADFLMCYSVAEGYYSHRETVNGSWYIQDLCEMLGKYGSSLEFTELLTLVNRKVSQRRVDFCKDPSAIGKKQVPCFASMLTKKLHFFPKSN

[11] = biological target: T4, Zinc finger protein mex-5 (Caenorhabditis elegans, UniProt Q9XUB2); test: MEX-5/TCR-2 RNA interaction inhibitors, dose response, biochemical, C. elegans, fluorescence polarization (AID 1960)
T4 sequence (Q9XUB2 whole entry): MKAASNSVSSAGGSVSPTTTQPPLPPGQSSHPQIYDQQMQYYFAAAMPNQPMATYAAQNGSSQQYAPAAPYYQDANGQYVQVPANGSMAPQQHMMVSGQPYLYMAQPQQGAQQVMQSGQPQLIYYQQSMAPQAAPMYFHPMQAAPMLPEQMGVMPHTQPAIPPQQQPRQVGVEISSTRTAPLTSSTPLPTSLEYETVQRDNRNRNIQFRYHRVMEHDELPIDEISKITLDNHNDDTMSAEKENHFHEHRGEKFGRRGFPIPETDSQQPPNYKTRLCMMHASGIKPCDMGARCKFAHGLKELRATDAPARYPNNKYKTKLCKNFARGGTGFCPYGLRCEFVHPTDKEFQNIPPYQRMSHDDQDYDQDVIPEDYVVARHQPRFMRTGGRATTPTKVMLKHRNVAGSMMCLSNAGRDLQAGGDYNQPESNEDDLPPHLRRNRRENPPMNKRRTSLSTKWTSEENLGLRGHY

[12] = biological target: Peroxisome proliferator-activated receptor gamma/Nuclear receptor coactivator 1 (Homo sapiens, UniProt P37231); test: TR-FRET dose response biochemical High Throughput Screening assay for agonists of the steroid receptor coactivator 1 (SRC-1) recruitment by the peroxisome proliferator-activated receptor gamma (PPAR gamma): non-selective agonists. [Related pubchem assays (depositor defined):AID1300, AID1808, AID504735, AID631]; type: protein assay
Sequence of Peroxisome proliferator-activated receptor gamma/Nuclear receptor coactivator 1 (P37231 whole entry): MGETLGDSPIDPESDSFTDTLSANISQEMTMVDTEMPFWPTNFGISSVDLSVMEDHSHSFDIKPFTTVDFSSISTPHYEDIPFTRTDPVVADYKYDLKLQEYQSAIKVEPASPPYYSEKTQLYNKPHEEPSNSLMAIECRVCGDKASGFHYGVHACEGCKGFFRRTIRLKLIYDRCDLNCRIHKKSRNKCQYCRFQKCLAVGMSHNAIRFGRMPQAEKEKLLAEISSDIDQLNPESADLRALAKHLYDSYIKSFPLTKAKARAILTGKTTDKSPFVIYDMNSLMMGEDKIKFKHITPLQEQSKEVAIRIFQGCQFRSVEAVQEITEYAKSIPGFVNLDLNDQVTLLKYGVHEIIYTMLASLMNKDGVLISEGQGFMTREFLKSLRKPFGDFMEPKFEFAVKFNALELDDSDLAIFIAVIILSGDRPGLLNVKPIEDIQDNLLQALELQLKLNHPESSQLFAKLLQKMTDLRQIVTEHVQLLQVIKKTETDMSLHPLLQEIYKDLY
Sequence of Peroxisome proliferator-activated receptor gamma/Nuclear receptor coactivator 1 (Q15788 whole entry, further chain): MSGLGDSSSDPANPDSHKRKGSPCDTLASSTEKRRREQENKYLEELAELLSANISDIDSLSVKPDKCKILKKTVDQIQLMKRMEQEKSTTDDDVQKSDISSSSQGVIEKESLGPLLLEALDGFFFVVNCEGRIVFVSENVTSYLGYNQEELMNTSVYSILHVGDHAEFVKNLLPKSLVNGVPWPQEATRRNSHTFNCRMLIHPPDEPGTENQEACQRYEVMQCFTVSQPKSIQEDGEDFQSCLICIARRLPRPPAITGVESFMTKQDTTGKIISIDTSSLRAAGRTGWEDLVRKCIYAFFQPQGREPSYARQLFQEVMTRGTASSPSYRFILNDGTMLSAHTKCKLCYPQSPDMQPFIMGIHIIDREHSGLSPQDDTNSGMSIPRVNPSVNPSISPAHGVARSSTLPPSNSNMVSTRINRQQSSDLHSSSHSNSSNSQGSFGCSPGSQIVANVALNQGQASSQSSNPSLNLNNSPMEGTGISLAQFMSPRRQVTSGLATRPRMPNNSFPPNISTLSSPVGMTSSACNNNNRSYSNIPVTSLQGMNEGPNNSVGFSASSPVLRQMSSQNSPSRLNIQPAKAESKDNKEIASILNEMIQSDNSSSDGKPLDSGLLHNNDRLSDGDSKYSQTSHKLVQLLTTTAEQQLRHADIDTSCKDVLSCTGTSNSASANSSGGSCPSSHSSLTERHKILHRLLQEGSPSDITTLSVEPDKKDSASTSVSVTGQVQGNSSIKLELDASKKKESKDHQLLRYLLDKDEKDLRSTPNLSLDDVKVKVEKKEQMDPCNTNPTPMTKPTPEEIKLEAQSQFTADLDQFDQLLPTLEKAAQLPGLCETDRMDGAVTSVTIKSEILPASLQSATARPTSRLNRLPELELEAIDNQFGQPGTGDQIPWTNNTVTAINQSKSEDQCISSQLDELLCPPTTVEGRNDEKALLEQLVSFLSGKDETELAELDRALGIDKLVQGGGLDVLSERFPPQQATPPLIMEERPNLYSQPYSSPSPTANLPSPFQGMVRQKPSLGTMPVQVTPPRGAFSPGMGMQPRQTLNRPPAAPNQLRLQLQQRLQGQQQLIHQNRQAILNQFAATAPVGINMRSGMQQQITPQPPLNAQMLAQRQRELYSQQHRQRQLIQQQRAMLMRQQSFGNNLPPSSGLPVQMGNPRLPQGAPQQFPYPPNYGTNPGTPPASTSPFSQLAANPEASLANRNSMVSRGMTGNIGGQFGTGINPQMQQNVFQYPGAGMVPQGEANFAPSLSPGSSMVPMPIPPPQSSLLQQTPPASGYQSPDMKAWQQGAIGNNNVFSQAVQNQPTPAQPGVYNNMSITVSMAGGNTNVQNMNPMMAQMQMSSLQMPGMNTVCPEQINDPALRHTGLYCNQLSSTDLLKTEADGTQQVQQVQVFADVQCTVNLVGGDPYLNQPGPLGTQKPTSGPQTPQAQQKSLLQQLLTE

[13] = biological target: Peroxisome proliferator-activated receptor gamma/Nuclear receptor coactivator 3 (Homo sapiens, UniProt P37231); test: TR-FRET dose response biochemical High Throughput Screening assay for agonists of the steroid receptor coactivator 3 (SRC-3) recruitment by the peroxisome proliferator-activated receptor gamma (PPAR gamma): non-selective agonists. [Related pubchem assays: 1301 (Confirmation screen.), 1048 (Primary screen.)]; type: functional
Sequence of Peroxisome proliferator-activated receptor gamma/Nuclear receptor coactivator 3 (P37231 whole entry): as the sequence (P37231 whole entry) above
Sequence of Peroxisome proliferator-activated receptor gamma/Nuclear receptor coactivator 3 (Q9Y6Q9 whole entry, further chain): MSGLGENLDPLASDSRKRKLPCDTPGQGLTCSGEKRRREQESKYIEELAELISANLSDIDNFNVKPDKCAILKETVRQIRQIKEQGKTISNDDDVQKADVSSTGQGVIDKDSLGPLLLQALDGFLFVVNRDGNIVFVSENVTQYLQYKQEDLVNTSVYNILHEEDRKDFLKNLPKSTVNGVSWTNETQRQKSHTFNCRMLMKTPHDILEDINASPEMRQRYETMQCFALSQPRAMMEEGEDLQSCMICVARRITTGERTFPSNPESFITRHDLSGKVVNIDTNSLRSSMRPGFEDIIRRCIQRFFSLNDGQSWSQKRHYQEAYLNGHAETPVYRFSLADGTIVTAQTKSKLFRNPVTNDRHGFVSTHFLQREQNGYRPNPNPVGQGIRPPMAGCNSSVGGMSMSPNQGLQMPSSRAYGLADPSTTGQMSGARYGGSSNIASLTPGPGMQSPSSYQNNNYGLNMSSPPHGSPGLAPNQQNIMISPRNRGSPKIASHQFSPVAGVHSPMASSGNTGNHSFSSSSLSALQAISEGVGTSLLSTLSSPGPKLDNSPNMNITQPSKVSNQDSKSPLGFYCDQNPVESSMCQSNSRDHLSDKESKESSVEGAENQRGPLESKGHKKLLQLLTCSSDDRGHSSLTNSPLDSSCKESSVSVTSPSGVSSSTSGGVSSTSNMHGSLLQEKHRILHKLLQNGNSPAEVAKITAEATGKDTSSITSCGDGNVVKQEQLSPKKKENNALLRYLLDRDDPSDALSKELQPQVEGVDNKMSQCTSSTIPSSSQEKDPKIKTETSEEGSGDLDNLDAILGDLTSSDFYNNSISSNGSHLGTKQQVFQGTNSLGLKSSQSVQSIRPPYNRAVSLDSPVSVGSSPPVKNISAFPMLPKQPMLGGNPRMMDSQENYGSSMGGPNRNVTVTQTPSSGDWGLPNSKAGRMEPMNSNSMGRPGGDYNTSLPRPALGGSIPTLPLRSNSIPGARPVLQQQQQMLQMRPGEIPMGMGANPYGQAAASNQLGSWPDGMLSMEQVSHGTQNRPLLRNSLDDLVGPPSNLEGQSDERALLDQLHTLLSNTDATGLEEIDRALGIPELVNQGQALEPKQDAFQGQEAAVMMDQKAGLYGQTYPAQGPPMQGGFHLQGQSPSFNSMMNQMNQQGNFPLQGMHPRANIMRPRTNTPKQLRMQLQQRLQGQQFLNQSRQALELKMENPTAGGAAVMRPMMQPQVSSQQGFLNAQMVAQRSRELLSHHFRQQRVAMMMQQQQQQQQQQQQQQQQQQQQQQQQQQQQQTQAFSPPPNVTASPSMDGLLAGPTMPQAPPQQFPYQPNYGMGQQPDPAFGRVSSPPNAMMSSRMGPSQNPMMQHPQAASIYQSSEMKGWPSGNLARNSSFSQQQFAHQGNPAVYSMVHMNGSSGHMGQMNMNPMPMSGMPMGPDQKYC

[14] = biological target: Peroxisome proliferator-activated receptor gamma/Nuclear receptor coactivator 2 (Homo sapiens, UniProt P37231); test: TR-FRET dose response biochemical High Throughput Screening assay for agonists of the steroid receptor coactivator 2 (SRC-2) recruitment by the peroxisome proliferator-activated receptor gamma (PPAR gamma): non-selective agonists. [Related pubchem assays: 1297, 1032 ]; type: functional
[15] = biological target: T5, Histone-lysine N-methyltransferase NSD2 (Homo sapiens, UniProt O96028); type: biochemical
T5 sequence (O96028 whole entry): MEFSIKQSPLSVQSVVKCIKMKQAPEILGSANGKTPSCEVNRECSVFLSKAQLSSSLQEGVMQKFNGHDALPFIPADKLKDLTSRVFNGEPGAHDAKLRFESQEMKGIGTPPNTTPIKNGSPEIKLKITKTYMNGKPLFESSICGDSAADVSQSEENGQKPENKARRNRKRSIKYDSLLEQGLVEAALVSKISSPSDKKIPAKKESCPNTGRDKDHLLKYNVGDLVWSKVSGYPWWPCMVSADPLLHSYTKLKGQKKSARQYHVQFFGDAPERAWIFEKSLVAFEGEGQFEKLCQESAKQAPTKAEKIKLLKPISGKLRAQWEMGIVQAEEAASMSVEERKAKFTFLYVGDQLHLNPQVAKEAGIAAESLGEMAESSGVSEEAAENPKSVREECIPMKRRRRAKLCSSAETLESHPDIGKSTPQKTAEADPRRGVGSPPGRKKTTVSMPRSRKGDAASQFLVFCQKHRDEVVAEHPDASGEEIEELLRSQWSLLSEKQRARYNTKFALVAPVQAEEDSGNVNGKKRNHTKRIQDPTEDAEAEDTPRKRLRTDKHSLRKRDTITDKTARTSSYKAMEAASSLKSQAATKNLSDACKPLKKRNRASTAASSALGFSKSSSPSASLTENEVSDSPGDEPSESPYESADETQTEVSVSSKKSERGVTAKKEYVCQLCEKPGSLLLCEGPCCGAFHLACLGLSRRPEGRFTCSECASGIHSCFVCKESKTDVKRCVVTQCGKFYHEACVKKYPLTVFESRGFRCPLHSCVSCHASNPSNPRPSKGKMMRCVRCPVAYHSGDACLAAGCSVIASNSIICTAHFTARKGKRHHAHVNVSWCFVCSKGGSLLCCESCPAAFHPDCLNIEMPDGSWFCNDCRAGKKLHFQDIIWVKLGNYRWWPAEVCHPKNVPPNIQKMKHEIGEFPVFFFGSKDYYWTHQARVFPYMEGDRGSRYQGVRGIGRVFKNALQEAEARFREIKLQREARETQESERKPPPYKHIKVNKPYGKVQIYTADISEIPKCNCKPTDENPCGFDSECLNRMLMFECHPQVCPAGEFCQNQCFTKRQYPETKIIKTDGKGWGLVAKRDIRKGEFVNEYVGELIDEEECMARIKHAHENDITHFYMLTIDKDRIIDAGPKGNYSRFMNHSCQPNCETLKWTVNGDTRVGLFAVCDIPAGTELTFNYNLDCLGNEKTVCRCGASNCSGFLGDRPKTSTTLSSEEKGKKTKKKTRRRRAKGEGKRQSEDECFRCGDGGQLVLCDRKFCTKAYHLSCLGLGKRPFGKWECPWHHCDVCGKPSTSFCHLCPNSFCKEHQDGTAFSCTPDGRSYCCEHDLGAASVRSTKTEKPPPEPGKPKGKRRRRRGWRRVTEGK

[16] = biological target: Cytochrome P450 2C9 (Homo sapiens, UniProt P11712)
[17] = test system: INS1; test: beta cell apoptosis inhibitors, cytokine rescue, dose response, luminescence, retest (AID 449756); type: functional, cell-based; details: Rattus norvegicus;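 also: cell death triggered by IL-1 beta plus TNF-alpha plus IFN-gamma mixture; protective hits raise ATP signal compared with cytokine alone wells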
[18] = test system: Vero; test: cells; type: functional; details: Chlorocebus sabaeus
[19] = biological target: T6, Calpain-2 catalytic subunit (Sus scrofa, UniProt P43367); test: pig calpain II inhibitor potency, dose response, biochemical, fluorogenic peptide substrate (AID 1420); type: functional
T6 sequence (P43367 whole entry): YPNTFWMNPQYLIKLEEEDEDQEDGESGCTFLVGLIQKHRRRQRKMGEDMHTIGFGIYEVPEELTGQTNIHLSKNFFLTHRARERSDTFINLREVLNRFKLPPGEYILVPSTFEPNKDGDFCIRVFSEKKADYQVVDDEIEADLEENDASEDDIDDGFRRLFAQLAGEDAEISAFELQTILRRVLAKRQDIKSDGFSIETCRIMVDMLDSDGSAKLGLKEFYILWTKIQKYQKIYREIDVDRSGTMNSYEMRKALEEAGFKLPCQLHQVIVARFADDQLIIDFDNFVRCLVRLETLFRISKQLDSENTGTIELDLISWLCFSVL

[20] = biological target: Paired box protein Pax-8 (Homo sapiens, UniProt Q06710); test: inhibitors of PAX8-driven TPO luciferase reporter, dose response, RMG-I cells, cherry-pick (AID 687027); type: functional, cell-based;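 also: luciferase reporter driven by Pax8 target thyroperoxidase promoter measured by SteadyGlo luminescence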
Sequence of Paired box protein Pax-8 (Q06710 whole entry): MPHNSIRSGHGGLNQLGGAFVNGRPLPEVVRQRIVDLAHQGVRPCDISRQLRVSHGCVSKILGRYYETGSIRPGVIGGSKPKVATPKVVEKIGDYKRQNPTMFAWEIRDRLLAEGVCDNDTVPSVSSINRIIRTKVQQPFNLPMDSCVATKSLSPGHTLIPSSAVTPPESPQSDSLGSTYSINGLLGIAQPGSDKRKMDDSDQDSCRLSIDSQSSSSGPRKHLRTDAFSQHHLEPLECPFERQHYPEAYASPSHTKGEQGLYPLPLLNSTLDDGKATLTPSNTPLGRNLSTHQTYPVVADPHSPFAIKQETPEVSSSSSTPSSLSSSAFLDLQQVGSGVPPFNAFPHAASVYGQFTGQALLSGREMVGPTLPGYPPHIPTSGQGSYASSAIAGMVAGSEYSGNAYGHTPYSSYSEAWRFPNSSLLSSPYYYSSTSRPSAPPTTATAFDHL

[21] = biological target: Induced myeloid leukemia cell differentiation protein Mcl-1 (Homo sapiens, UniProt Q07820); type: functional
Sequence of Induced myeloid leukemia cell differentiation protein Mcl-1 (Q07820 whole entry): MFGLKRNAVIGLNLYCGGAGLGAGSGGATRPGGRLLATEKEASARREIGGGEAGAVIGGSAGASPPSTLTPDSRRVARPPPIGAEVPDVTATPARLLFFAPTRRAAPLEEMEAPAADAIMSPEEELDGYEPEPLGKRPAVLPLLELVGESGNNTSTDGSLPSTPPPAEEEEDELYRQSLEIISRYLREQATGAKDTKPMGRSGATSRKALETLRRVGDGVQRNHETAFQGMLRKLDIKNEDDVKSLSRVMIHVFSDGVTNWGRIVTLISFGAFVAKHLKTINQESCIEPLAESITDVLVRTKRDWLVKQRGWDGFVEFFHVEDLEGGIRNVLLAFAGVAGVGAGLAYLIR

CCCn1c(=N)n(CC(O)c2ccco2)c2ccccc21 (stereo unspecified)
IC50 [1]: > 100 µM (active)

Cc1ccc(C(=O)N2c3ccc(F)cc3CCC2C)o1 (stereo unspecified)
IC50 [1]: > 100 µM (active)

COc1ccc(-c2cn(-c3ccc(C)c(Cl)c3)c(S)n2)cc1OC
IC50 [2]: > 29.9 µM (inactive)
EC50 [3]: > 29.9 µM (inactive)

COc1ccc(N2CCN(CCNC(=O)Nc3ccc(Cl)cc3)CC2)cc1
IC50 [1]: > 100 µM (active)

COc1cccc(CNc2ccccc2O)c1OCc1ccccc1F
IC50 [4]: > 100 µM (active)

C=CCNc1nc2c(c(=O)n(C)c(=O)n2C)n1CCCCCC
AC50 [5]: 1.18 µM (active)
IC50 [2]: 1.95 µM (active)
AC50 [6]: 0.761 µM (active)
EC50 [3]: > 29.9 µM (inactive)
AC50 [7]: 2.6 µM (active)
AC50 [8]: 7.74 µM (active)

N#CC1=C(N)Oc2cc(O)c(Cl)cc2C1c1ccccc1F (stereo unspecified)
EC50 [9]: > 300 µM (not active)
AC50 [10]: 42.2 µM (active)
EC50 [11]: > 300 µM (not active)

N#CC1=C(N)Oc2c(c(=O)oc3ccccc23)C1c1ccc([N+](=O)[O-])o1 (stereo unspecified)
AC50 [10]: 13.9 µM (active)

COc1c(F)c(F)c(C(=O)Nc2ccc3oc(-c4ccncc4)nc3c2)c(F)c1F
IC50 [1]: > 100 µM (active)
EC50 [12]: 21.5 µM (inactive)
EC50 [13]: 57.7 µM (not active)
EC50 [14]: 20.6 µM (not active)

CCOc1ccc(NC(=O)CCn2cccc2)cc1
IC50 [4]: > 100 µM (active)

CN(C)c1ccc(CNCCC(Cc2ccccc2)c2ccco2)cc1 (stereo unspecified)
AC50 [15]: > 20 µM (inactive)

Nc1nn2c(O)c3c(nc2c1N=Nc1ccccc1)CCCC3
IC50 [2]: 3.7 µM (active)
EC50 [3]: > 29.9 µM (inactive)
AC50 [16]: 8.91 µM (inconclusive)

Cc1ccc(NC(=O)CCn2cnc3ccccc3c2=O)cc1Cl
IC50 [4]: > 100 µM (active)

CCOc1ccc(NC=C2C(=O)CC(C)(C)CC2=O)cc1
IC50 [4]: > 100 µM (active)

COc1ccc(-c2csc(NC(=O)c3ccccc3NS(=O)(=O)c3ccc(F)c(F)c3)n2)cc1
AC50 [17]: 3.05 µM (active)
IC50 [2]: 1.4 µM (active)
EC50 [3]: > 29.9 µM (inactive)
CC50 [18]: 2.03 µM (active)
IC50 [19]: > 50 µM (not active)
AC50 [20]: 2.64 µM (active)

CSc1nc2ccc(NS(=O)(=O)c3cccc(Cl)c3Cl)cc2s1
IC50 [4]: > 100 µM (active)

O=c1nc2s/c(=C\c3ccc(-c4ccccc4[N+](=O)[O-])o3)c(=O)n2nc1-c1ccccc1
IC50 [21]: 9.66 µM (active)
AC50 [10]: 18 µM (active)
